Experiments:
IL6 = experiment: IL-6 Quantification Assay (ELISA), LPS-stimulated RAW 264.7; type: cell-based; parameters: inhibition: dose or concentration left out as unconfirmed; conditions: Mus musculus, RAW264.7; read-out: IL-6: % inh.
KRas G12D mutant = experiment: Ras GTP Binding Domain Inhibition Assay (Ras Superfamily Assay); conditions: 20 μM compound; for KRas G12D mutant + SOS: % inh.: with SOS; for KRas G12D mutant: % inh.: without SOS
How it was run: (§1)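 His-tagged GTPases immobilised on nickel-coated plates, pre-incubated with compound (20 μM single point, or serial dilution for IC50) 3 h at room temperature, with or without 10-30 μg/mL Sos (residues 556-1049) in the final hour. Bound Cy3- or Cy5-GTP (100 nM, 45 min) measured by fluorescence after washing.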

KRas wild type = experiment: as above; conditions: 20 μM compound; for KRas wild type + SOS: % inh.: with SOS; for KRas wild type: % inh.: without SOS
How it was run: as §1

Rac-1 = biological target: T1, Rac-1 (Homo sapiens, UniProt P63000); experiment: as above; conditions: read-out: Rac-1: % inh.
T1 construct: made in house
How it was run: as §1

Akt phosphorylation = experiment: Akt Phosphorylation Assay (western blot), Panc-1; type: cell-based, human; conditions: at 10 μM, * = activation
How it was run: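 Phospho-Akt (Ser473) was measured by western blot in lysates of KRas G12D Panc-1 cells exposed to test compound for 6 h at 37 °C, either at 10 μM final with 0.3% DMSO or as serial dilutions for IC50. One format used overnight 0.5% FBS starvation followed by a 15 min pulse of 1.5 ng/ml EGF. The other used cells in 10% FBS with no stimulation.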

SMILES | KRas G12D mutant + SOS: % inh. (KRas G12D mutant) | KRas G12D mutant: % inh. (KRas G12D mutant) | KRas wild type + SOS: % inh. (KRas wild type) | KRas wild type: % inh. (KRas wild type) | inhibition at 20 µM (Rac-1) [%] | inhibition (IL6) [%] | % inh of Akt phosphorylation in Panc-1 (Akt phosphorylation)
CC(C)n1ccc(-c2cn3nc(-c4nccn4C)nc(O)c3c2-c2ccccc2)n1 [Compound 17, 6-(1-Isopropyl-1H-pyrazol-3-yl)-2-(1-methyl-1H-imidazol-2-yl)-5-phenylpyrrolo[2,1-f][1,2,4]triazin-4-ol] | C (C = 50-75% inhibition) | C (C = 50-75% inhibition) | C (C = 50-75% inhibition) | C (C = 50-75% inhibition) | 50 to 75 | 50 to 74 | D (85-100% inhibition)
COc1cc(Nc2nc(-c3nccn3C)nn3cc(-c4ccn(C(C)C)n4)c(-c4ccccc4)c23)ncn1 [Compound 22, 6-(1-Isopropyl-1H-pyrazol-3-yl)-N-(6-methoxypyrimidin-4-yl)-2-(1-methyl-1H-imidazol-2-yl)-5-phenylpyrrolo[2,1-f][1,2,4]triazin-4-amine] | B (B = 26-49% inhibition) | B (B = 26-49% inhibition) | A (A = 1-25% inhibition) | B (B = 26-49% inhibition) | 26 to 49 | 75 to 100 | A* (1-25% activation)
Cn1ccnc1-c1nc(O)c2c(-c3ccccc3)ccn2n1 [Compound 39, 2-(1-Methyl-1H-imidazol-2-yl)-5-phenylpyrrolo[2,1-f][1,2,4]triazin-4-ol] | A (A = 1-25% inhibition) | A (A = 1-25% inhibition) | A (A = 1-25% inhibition) | A (A = 1-25% inhibition) | 0 | 0 | 0 (0% inhibition)
Cc1c(-c2ccn(C(C)C)n2)cn2nc(-c3nccn3C)nc(Nc3noc(C4CC4)n3)c12 [Compound 75, 5-Cyclopropyl-N-(6-(1-isopropyl-1H-pyrazol-3-yl)-5-methyl-2-(1-methyl-1H-imidazol-2-yl)pyrrolo[2,1-f][1,2,4]triazin-4-yl)-1,2,4-oxadiazol-3-amine] | A (A = 1-25% inhibition) | B (B = 26-49% inhibition) | A (A = 1-25% inhibition) | A (A = 1-25% inhibition) | 26 to 49 | 1 to 24 | A* (1-25% activation)
CCc1nc(Nc2nc(-c3nccn3C)nn3cc(-c4ccn(C(C)C)n4)c(C)c23)nn1C [Compound 76, N-(5-Ethyl-1-methyl-1H-1,2,4-triazol-3-yl)-6-(1-isopropyl-1H-pyrazol-3-yl)-5-methyl-2-(1-methyl-1H-imidazol-2-yl)pyrrolo[2,1-f][1,2,4]triazin-4-amine] | 0 (0 = 0% inhibition) | C (C = 50-75% inhibition) | 0 (0 = 0% inhibition) | B (B = 26-49% inhibition) | 50 to 75 | 25 to 49 | D* (85-100% activation)
Cc1c(-c2ccn(C(C)C)n2)cn2nc(-c3nccn3C)nc(Nc3cn(C(C)C)nn3)c12 [Compound 78, N-(1-Isopropyl-1H-1,2,3-triazol-4-yl)-6-(1-isopropyl-1H-pyrazol-3-yl)-5-methyl-2-(1-methyl-1H-imidazol-2-yl)pyrrolo[2,1-f][1,2,4]triazin-4-amine] | D (D = 76-100% inhibition) | D (D = 76-100% inhibition) | D (D = 76-100% inhibition) | D (D = 76-100% inhibition) | 76 to 100 | 25 to 49 | D* (85-100% activation)
COc1ncc(Nc2nc(-c3nccn3C)nn3cc(-c4ccn(C(C)C)n4)c(C)c23)cn1 [Compound 80, 6-(1-Isopropyl-1H-pyrazol-3-yl)-N-(2-methoxypyrimidin-5-yl)-5-methyl-2-(1-methyl-1H-imidazol-2-yl)pyrrolo[2,1-f][1,2,4]triazin-4-amine] | 0 (0 = 0% inhibition) | A (A = 1-25% inhibition) | A (A = 1-25% inhibition) | A (A = 1-25% inhibition) | 1 to 25 | 0 | D* (85-100% activation)
Cc1c(-c2ccn(C(C)C)n2)cn2nc(-c3nccn3C)nc(Nc3nnc(C4CC4)[nH]3)c12 [Compound 81, N-(5-Cyclopropyl-4H-1,2,4-triazol-3-yl)-6-(1-isopropyl-1H-pyrazol-3-yl)-5-methyl-2-(1-methyl-1H-imidazol-2-yl)pyrrolo[2,1-f][1,2,4]triazin-4-amine] | C (C = 50-75% inhibition) | D (D = 76-100% inhibition) | B (B = 26-49% inhibition) | C (C = 50-75% inhibition) | 76 to 100 | 75 to 100 | D* (85-100% activation)
COCc1noc(Nc2nc(-c3nccn3C)nn3cc(-c4ccn(C(C)C)n4)c(C)c23)n1 [Compound 82, N-(6-(1-Isopropyl-1H-pyrazol-3-yl)-5-methyl-2-(1-methyl-1H-imidazol-2-yl)pyrrolo[2,1-f][1,2,4]triazin-4-yl)-3-(methoxymethyl)-1,2,4-oxadiazol-5-amine] | B (B = 26-49% inhibition) | C (C = 50-75% inhibition) | 0 (0 = 0% inhibition) | C (C = 50-75% inhibition) | 26 to 49 | 75 to 100 | D* (85-100% activation)

Second part, led by results:

KRas G12D mutant + SOS: % inh. (KRas G12D mutant) | KRas G12D mutant: % inh. (KRas G12D mutant) | KRas wild type + SOS: % inh. (KRas wild type) | KRas wild type: % inh. (KRas wild type) | inhibition at 20 µM (Rac-1) [%] | SMILES | inhibition (IL6) [%] | % inh of Akt phosphorylation in Panc-1 (Akt phosphorylation)
B (B = 26-49% inhibition) | B (B = 26-49% inhibition) | B (B = 26-49% inhibition) | B (B = 26-49% inhibition) | 0 | Cc1ccn2nc(-c3nccn3C)nc(N)c12.O=C(O)C(F)(F)F [Compound 37, 5-Methyl-2-(1-methyl-1H-imidazol-2-yl)pyrrolo[2,1-f][1,2,4]triazin-4-amine trifluoroacetic acid salt] | 0 | 0 (0% inhibition)
B (B = 26-49% inhibition) | D (D = 76-100% inhibition) | C (C = 50-75% inhibition) | C (C = 50-75% inhibition) | 76 to 100 | Cc1c(-c2ccn(C(C)C)n2)cn2nc(-c3nccn3C)nc(Nc3cnn(C(C)C)n3)c12 [Compound 77, 6-(1-Isopropyl-1H-pyrazol-3-yl)-N-(2-isopropyl-2H-1,2,3-triazol-4-yl)-5-methyl-2-(1-methyl-1H-imidazol-2-yl)pyrrolo[2,1-f][1,2,4]triazin-4-amine] | 1 to 24 | D* (85-100% activation)
C (C = 50-75% inhibition) | D (D = 76-100% inhibition) | B (B = 26-49% inhibition) | C (C = 50-75% inhibition) | 76 to 100 | COCc1csc(Nc2nc(-c3nccn3C)nn3cc(-c4ccn(C(C)C)n4)c(C)c23)n1 [Compound 79, N-(6-(1-Isopropyl-1H-pyrazol-3-yl)-5-methyl-2-(1-methyl-1H-imidazol-2-yl)pyrrolo[2,1-f][1,2,4]triazin-4-yl)-4-(methoxymethyl)thiazol-2-amine] | 1 to 24 | D* (85-100% activation)
D (D = 76-100% inhibition) | D (D = 76-100% inhibition) | C (C = 50-75% inhibition) | D (D = 76-100% inhibition) | 76 to 100 | COc1cnc(Nc2nc(-c3nccn3C)nn3cc(-c4ccn(C(C)C)n4)c(C)c23)cn1 [Compound 83, 6-(1-Isopropyl-1H-pyrazol-3-yl)-N-(5-methoxypyrazin-2-yl)-5-methyl-2-(1-methyl-1H-imidazol-2-yl)pyrrolo[2,1-f][1,2,4]triazin-4-amine] | 25 to 49 | D* (85-100% activation)
A (A = 1-25% inhibition) | 0 (0 = 0% inhibition) | 0 (0 = 0% inhibition) | 0 (0 = 0% inhibition) | 0 | COc1ncccc1Nc1nc(-c2nccn2C)nn2cc(-c3ccn(C(C)C)n3)c(C)c12 [Compound 85, 6-(1-Isopropyl-1H-pyrazol-3-yl)-N-(2-methoxypyridin-3-yl)-5-methyl-2-(1-methyl-1H-imidazol-2-yl)pyrrolo[2,1-f][1,2,4]triazin-4-amine] | 75 to 100 | D* (85-100% activation)
